Measurements from PMC9775191, “A Subset Screen of the Compounds Australia Scaffold Library Identifies 7-Acylaminodibenzoxazepinones as Potent and Selective Hits for Anti-Giardia Drug Discovery” (Biomedicines, 2022).

Test system: G. duodenalis BRIS/91/HEPU/1279
Experiment: Primary Giardia screen at 10 µM (live-cell imaging, automated counting)
Format: cell-based, Giardia duodenalis
Conditions: for % Inhibition n=1 48h / % Inhibition n=1 24h: first singlicate assay; for % Inhibition n=2 24h / % Inhibition n=2 48h: re-assessment
In short: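 One concentration, 10 μM, is screened per compound in singlicate under microaerophilic gas (3% O2, 5% CO2, N2). Inhibition comes from automated image-based counts at 24 and 48 h, relative to 0.2% DMSO controls.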

**Q.** Which “% Inhibition n=1 48h” value does the source give for `COCCNC(=O)c1nc[nH]c1C(=O)NC(C)C` [SN00786292] here?
**A.** The value was 8.3%.

**Q.** `Cc1ccc(-c2nc3ncccn3c2NC(=O)c2ccc(C(F)(F)F)cc2)cc1` [SN00793355] was tested. Which “% Inhibition n=1 48h” value did it give?
**A.** The value was 13.4%.

**Q.** With `Cc1ccccc1C1CCCN1Cc1nc2c(cnn2C)c(=O)[nH]1` (centres unmarked) [SN00772523] as the molecule, how does the “Average % Inhibition 24h” value read?
**A.** The value was 0.0%.

**Q.** And the “% Inhibition n=1 24h” value?
**A.** Its value is 0.0%.

**Q.** What about the “% Inhibition n=2 24h” value of the same molecule?
**A.** The value was 0.0%.

**Q.** And the “Average % Inhibition 48h” value?
**A.** Its value is 28.2%.

**Q.** And the “% Inhibition n=1 48h” value?
**A.** Its value is 56.4%.

**Q.** And the “% Inhibition n=2 48h” value?
**A.** Its value is 0.0%.

**Q.** `Cc1cccc(C(=O)Nc2cnc(N3CCNCC3)c(C(=O)N(CC(C)C)CC(C)C)c2)c1` [SN00795320] was tested. Which “% Inhibition n=1 48h” value did it give?
**A.** Its value is 14.5%.

**Q.** Which “% Inhibition n=1 48h” value does the source give for `CCOc1ccc(NS(=O)(=O)c2cc(C(=O)Nc3cc(C)ccc3C)[nH]n2)cc1` [SN00784397] here?
**A.** The value was 15.3%.

**Q.** Which “% Inhibition n=1 48h” value does the source give for `CCn1ccc(C(=O)Nc2ccc3c(c2)Sc2ncccc2C(=O)N3C)n1` [SN00800580] here?
**A.** The value was 19.0%.

**Q.** Which “% Inhibition n=1 48h” value does the source give for `Cc1ncccc1CNCC1CN(C2CC2)CCO1` (centres unmarked) [SN00783283] here?
**A.** Its value is 14.5%.

**Q.** For `O=C(CCC(=O)N1CCCN(c2nc3cccnc3s2)CC1)NCCc1c[nH]c2ccccc12` [SN00795593], which “% Inhibition n=1 48h” value is on record?
**A.** Its value is 0.0%.

**Q.** For `Cc1cccc(CC(=O)N2CCN(c3nc4cccnc4n(Cc4ccccc4)c3=O)CC2)c1` [SN00797319], which “% Inhibition n=1 48h” value is on record?
**A.** Its value is 38.8%.

**Q.** With `O=C(Nc1ccc2sc(NS(=O)(=O)c3ccccc3)nc2c1)Nc1ccccc1Cl` [SN00797595] as the molecule, how does the “% Inhibition n=1 48h” value read?
**A.** Its value is 4.6%.

**Q.** How did the “% Inhibition n=1 48h” value turn out when `Cc1ccc(CNC(=O)Cn2c(C)cc(C)c(-c3nc(-c4ccccc4)no3)c2=O)cc1` [SN00792891] was run?
**A.** Its value is 0.0%.

**Q.** With `Cc1cnc(CN2CCOC(CNc3cccnn3)C2)o1` (centres unmarked) [SN00775722] as the molecule, how does the “% Inhibition n=1 48h” value read?
**A.** The value was 13.5%.

**Q.** `COc1ccc(-c2cc(N3CCC(NC(=O)Cc4ccccc4)CC3)[nH]n2)cc1` [SN00800379] was tested. Which “% Inhibition n=1 48h” value did it give?
**A.** Its value is 0.0%.

**Q.** With `O=C(Cn1c(-c2ncccn2)noc1=O)N1CCCCC1` [SN00781438] as the molecule, how does the “% Inhibition n=1 48h” value read?
**A.** Its value is 1.7%.

**Q.** For `CCc1nnc(-c2nnc(NCc3ccc4c(c3)OCO4)c3ccccc23)o1` [SN00800558], which “% Inhibition n=1 48h” value is on record?
**A.** The value was 0.0%.

**Q.** With `O=C(Cc1cccs1)Nc1ccc(N2CCN(c3ccccc3F)CC2)cc1C(=O)O` [SN00790111] as the molecule, how does the “% Inhibition n=1 48h” value read?
**A.** The value was 0.0%.

**Q.** `CC1CCN(C(=O)c2n[nH]c(=O)c3ccccc23)CC1` [SN00774511] was tested. Which “% Inhibition n=1 48h” value did it give?
**A.** The value was 0.0%.

**Q.** `CS(=O)(=O)c1nccn1Cc1ccccn1` [SN00783289] was tested. Which “% Inhibition n=1 48h” value did it give?
**A.** The value was 1.6%.

**Q.** How did the “% Inhibition n=1 48h” value turn out when `Cc1ccc(Cn2nnc3c(=O)n(Cc4nc(-c5ccccc5)no4)cnc32)cc1` [SN00790594] was run?
**A.** The value was 2.1%.

**Q.** Which “% Inhibition n=1 48h” value does the source give for `CN(CCCN)C(=O)c1ccc2c(=O)n3c(nc2c1)CCCCC3` [SN00785585] here?
**A.** The value was 25.4%.

**Q.** `CCCN(c1ccccc1C(=O)O)S(=O)(=O)c1ccc2[nH]c(=O)[nH]c2c1` [SN00783856] was tested. Which “% Inhibition n=1 48h” value did it give?
**A.** The value was 12.1%.

**Q.** `COc1ccc(OC)c(C2C(C(=O)c3ccco3)=C(O)C(=O)N2c2cc(C)on2)c1` (centres unmarked) [SN00780182] was tested. Which “% Inhibition n=1 48h” value did it give?
**A.** Its value is 21.6%.

**Q.** How did the “% Inhibition n=1 48h” value turn out when `CC(=O)Nc1ccc(C(=O)OCc2cc(-c3cccs3)on2)s1` [SN00777515] was run?
**A.** The value was 14.0%.

**Q.** Which results are given for `Cc1nnc(CN2CCN(CC(O)COCc3ccco3)CC2)n1C` (centres unmarked) [SN00772332]?
**A.** Average % Inhibition 24h: 0.0%; % Inhibition n=1 24h: 0.0%; % Inhibition n=2 24h: 0.0%; Average % Inhibition 48h: 28.5%; % Inhibition n=1 48h: 57.1%; % Inhibition n=2 48h: 0.0%

**Q.** How did the “% Inhibition n=1 48h” value turn out when `O=S(=O)(c1ccc(Cl)cc1)N1CCC(c2nc(-c3c(Cl)cccc3Cl)no2)CC1` [SN00779695] was run?
**A.** The value was 11.2%.

**Q.** How did the “% Inhibition n=1 48h” value turn out when `COCCn1cc2c3c(cccc31)CN(C(=O)Nc1ccccc1F)CC2` [SN00798581] was run?
**A.** The value was 22.0%.

**Q.** For `Cc1ccc(-c2nc(C)sc2CC(=O)N2CCN(Cc3nc(N)c4ccccc4n3)CC2)cc1` [SN00778718], which “% Inhibition n=1 48h” value is on record?
**A.** Its value is 9.0%.

**Q.** Which “% Inhibition n=1 48h” value does the source give for `O=C(c1nnn(-c2ccc(Cl)cc2)c1-c1cccnc1)N1CCCCC1` [SN00796543] here?
**A.** Its value is 20.4%.

**Q.** Which “% Inhibition n=1 48h” value does the source give for `Cc1cccc(-c2nc(-c3ccc(NS(C)(=O)=O)cc3)no2)c1` [SN00795250] here?
**A.** Its value is 9.2%.

**Q.** With `CCS(=O)(=O)N1CCC2(CC1)OC(=O)C(C)=C2C(=O)Nc1ccc(C)cc1C` [SN00791146] as the molecule, how does the “% Inhibition n=1 48h” value read?
**A.** Its value is 0.0%.

**Q.** `O=S(=O)(Cc1ccccc1)Nc1cccc(-c2nnc(Cc3ccc4c(c3)OCO4)o2)c1` [SN00795993] was tested. Which “Average % Inhibition 24h” value did it give?
**A.** Its value is 17.2%.

**Q.** What about the “% Inhibition n=1 24h” value of the same molecule?
**A.** Its value is 34.4%.

**Q.** And the “% Inhibition n=2 24h” value?
**A.** Its value is 0.0%.

**Q.** And the “Average % Inhibition 48h” value?
**A.** The value was 46.9%.

**Q.** And the “% Inhibition n=1 48h” value?
**A.** Its value is 80.2%.

**Q.** And the “% Inhibition n=2 48h” value?
**A.** Its value is 13.6%.

**Q.** With `O=C(CN1C(=O)CC2(CCCCC2)C1=O)Nc1ccc([N+](=O)[O-])cc1` [SN00777618] as the molecule, how does the “% Inhibition n=1 48h” value read?
**A.** Its value is 47.2%.

**Q.** `COCC(=O)Nc1ccc(NC(=O)c2cc3nc(C)ccc3o2)cc1` [SN00781689] was tested. Which “% Inhibition n=1 48h” value did it give?
**A.** The value was 14.1%.

**Q.** For `CCc1ccccc1Nc1nc(N)nc(CN2CCCN(S(=O)(=O)c3ccc(C)cc3)CC2)n1` [SN00771296], which “% Inhibition n=1 48h” value is on record?
**A.** Its value is 10.0%.

**Q.** Which “% Inhibition n=1 48h” value does the source give for `CCOC(=O)CNC(=O)N1Cc2c(C)nn(-c3ccccc3)c2-n2cccc2C1c1cccc(F)c1` (centres unmarked) [SN00792341] here?
**A.** Its value is 8.0%.

**Q.** How did the “% Inhibition n=1 48h” value turn out when `O=C(c1cnn(-c2ccccc2)c1C1CC1)N1CCc2ccccc21` [SN00775113] was run?
**A.** The value was 0.5%.

**Q.** For `O=C(NC1CC1)c1cnn2c(-c3ccccn3)ccnc12` [SN00795482], which “% Inhibition n=1 48h” value is on record?
**A.** Its value is 0.0%.

**Q.** `CCc1nnc(NC(=O)c2ccsc2-n2c(C)ccc2C)s1` [SN00776389] was tested. Which “% Inhibition n=1 48h” value did it give?
**A.** The value was 11.7%.
